From ChEMBL document CHEMBL1158849, “New bioactive triterpenoids from Melia volkensii” (J Nat Prod, 1998)
In brackets after ≈: the same amount, converted by molar mass.

What was measured:
PC-3 = assay: Cytotoxicity against human PC3 cells after 7 days by MTT assay; type: functional; conditions: PC-3, 168 h, read-out: ED50 (the source's name)
MIA PaCa-2 = assay: Cytotoxicity against human MIAPaCa2 cells after 7 days by MTT assay; type: functional; conditions: MIA PaCa-2, 168 h, read-out: ED50 (the source's name)
[1] = Toxicity against brine shrimp larvae; type: organism-based; conditions: artemia, in vivo
Aedes aegypti = assay: Cytotoxicity against yellow fever mosquitoes; type: functional
A549 = assay: Cytotoxicity against human A549 cells after 7 days by MTT assay; type: functional; conditions: A549, 168 h, read-out: ED50 (the source's name)
MCF7 = assay: Cytotoxicity against human MCF7 cells after 7 days by MTT assay; type: functional; conditions: MCF7, 168 h, read-out: ED50 (the source's name)
HT-29 = assay: Cytotoxicity against human HT-29 cells after 7 days by MTT assay; type: functional; conditions: HT-29, 168 h, read-out: ED50 (the source's name)
A498 = assay: Cytotoxicity against human A498 cells after 7 days by MTT assay; type: functional; conditions: A498, 168 h, read-out: ED50 (the source's name)

| SMILES | EC50 (PC-3) | EC50 (MIA PaCa-2) | LC50 [1] | LC50 (Aedes aegypti) | EC50 (A549) | EC50 (MCF7) | EC50 (HT-29) | EC50 (A498) |
| --- | --- | --- | --- | --- | --- | --- | --- | --- |
| CC(=O)O[C@H]1C[C@@H](OC(C)=O)[C@@]2(C)CO[C@@H]3[C@@H](O)[C@@]4(C)C5=CC[C@@H](c6ccoc6)[C@]5(C)CC[C@@H]4[C@]1(C)[C@@H]32 | 2.78 µg/mL (≈ 5.42 µM) | 3.06 µg/mL (≈ 5.97 µM) | 10 µg/mL (≈ 19.5 µM) | 29.2 µg/mL (≈ 56.9 µM) | 3.29 µg/mL (≈ 6.42 µM) | 2.42 µg/mL (≈ 4.72 µM) | 3.73 µg/mL (≈ 7.28 µM) | 3.35 µg/mL (≈ 6.53 µM) |
| CC(=O)O[C@H]1C[C@@H](OC(=O)c2ccccc2)C(C)(C)[C@@H]2C[C@@H](OC(C)=O)[C@@]3(C)C4=CC[C@@H](C5COC(C)(C)C(=O)C(=O)C5)[C@]4(C)CC[C@@H]3[C@@]12C (some centres not stated) | 0.0281 µg/mL (≈ 0.0407 µM) | 0.013 µg/mL (≈ 0.0188 µM) | – | – | 1.07 µg/mL (≈ 1.55 µM) | 6.13 µg/mL (≈ 8.87 µM) | 6.25 µg/mL (≈ 9.05 µM) | 4.78 µg/mL (≈ 6.92 µM) |
| CC(=O)O[C@H]1C[C@@H](OC(=O)c2ccccc2)C(C)(C)[C@@H]2C[C@@H](OC(C)=O)[C@@]3(C)C4=CC(=O)[C@@H](C5COC(C)(C)C(=O)C(=O)C5)[C@]4(C)CC[C@@H]3[C@@]12C (some centres not stated) [16,23,24-TRIKETOMELIANIN B] | 2.1 µg/mL (≈ 2.98 µM) | 3.32 µg/mL (≈ 4.71 µM) | – | – | 18.2 µg/mL (≈ 25.8 µM) | 2.61 µg/mL (≈ 3.7 µM) | 6.36 µg/mL (≈ 9.02 µM) | 4.15 µg/mL (≈ 5.89 µM) |
| COc1cccc2c1C(=O)c1c(O)c3c(c(O)c1C2=O)C[C@@](O)(C(=O)CO)C[C@@H]3O[C@H]1C[C@H](N)[C@H](O)[C@H](C)O1 [DOXORUBICIN] | 0.0276 µg/mL (≈ 0.0508 µM) | 0.0133 µg/mL (≈ 0.0245 µM) | – | – | – | 0.253 µg/mL (≈ 0.465 µM) | 0.0351 µg/mL (≈ 0.0646 µM) | 0.00424 µg/mL (≈ 0.0078 µM) |
| CC(=O)O[C@H]1C[C@@H](OC(=O)c2ccccc2)C(C)(C)[C@@H]2C[C@@H](OC(C)=O)[C@@]3(C)C4=CC[C@@H](C5COC(C)(C)[C@@H](O)[C@H](O)C5)[C@]4(C)CC[C@@H]3[C@@]12C (some centres not stated) [MELIANIN B] | 0.393 µg/mL (≈ 0.566 µM) | 2.09 µg/mL (≈ 3.01 µM) | > 100 µg/mL | > 100 µg/mL | 1.68 µg/mL (≈ 2.42 µM) | 3.29 µg/mL (≈ 4.73 µM) | 2.15 µg/mL (≈ 3.09 µM) | 3.67 µg/mL (≈ 5.28 µM) |
| CC(=O)O[C@H]1C[C@@H](OC(=O)c2ccccc2)C(C)(C)[C@@H]2C[C@@H](OC(C)=O)[C@@]3(C)C4=CC[C@@H](C5COC(=O)C5)[C@]4(C)CC[C@@H]3[C@@]12C (some centres not stated) [MELIANIN C] | 0.473 µg/mL (≈ 0.762 µM) | 20.6 µg/mL (≈ 33.2 µM) | – | – | 21.9 µg/mL (≈ 35.2 µM) | 14.5 µg/mL (≈ 23.3 µM) | 18.1 µg/mL (≈ 29.1 µM) | 26.5 µg/mL (≈ 42.7 µM) |
| CC(=O)O[C@@H]1C[C@H](OC(=O)c2ccccc2)[C@@]2(C)[C@H]3[C@H](OC[C@]13C)[C@@H](O)[C@@]1(C)C3=CC[C@@H](c4ccoc4)[C@]3(C)CC[C@@H]12 [MELIAVOLKININ] | 1.02 µg/mL (≈ 1.77 µM) | 16.7 µg/mL (≈ 29.1 µM) | 5.37 µg/mL (≈ 9.34 µM) | 59.7 µg/mL (≈ 104 µM) | 25.4 µg/mL (≈ 44.1 µM) | 27.8 µg/mL (≈ 48.4 µM) | 28.1 µg/mL (≈ 48.8 µM) | 26.9 µg/mL (≈ 46.8 µM) |
